This note sets out measurements from US20100022520A1, “MALONYL-COA ACETYLTRANSFERASE INHIBITORS AGAINST ANTIBIOTIC RESISTANT BACTERTIA” (University of Pittsburgh -- Of the Commonwealth System of …, priority 2008, published 2010).

Structures are written as SMILES.

One assay concerns the target T1, E. coli FabD (Escherichia coli, UniProt P0AAI9).
T1 construct: made in house; host or cells: E. coli
The assay is described as follows: in vitro FabD (MCAT) enzyme inhibition assay, HPLC of CoA peak. Type of assay: biochemical. As to conditions: protocol of Molnos et al. The method, then: Compounds synthesized using MCR, as described above, were tested for their ability to inhibit FabD using an in vitro inhibition assay. Briefly, FabD and holo-ACP was cloned, and expressed in E. coli according to the protocol of Molnos et al., Anal. Biochem. 2003, 319, 171. The proteins were purified using the ACTA protein purification system. The inhibition study was carried out according to the protocol of Miossec et al., American Society for Microbiology 104th General Meeting, New Orleans, 2004 (LA. Abstract: K-001), and was performed in a final volume of 100 μl in 96-well microtiter plates (IEA/RIA black, flat bottom, half area plates, Costar).
Purified E. coli FabD was diluted in the enzyme dilution buffer (100 mM phosphate buffer pH 7, DTT 1.5 mM, BSA 1 mg/ml [30 ml of Assay buffer+30 mg of BSA]) at ten times the final concentration (0.75 ng/ml). Malonyl-CoA (10 mM, Sigma) was diluted to ten times the final concentration (25 uM) with distilled H2O. Holo-ACP was prepared to 874 μM. […] The reaction mixture was analyzed by anion exchange, high performance liquid chromatography, using a PL-SAX8u 4.6 mm×150 mm column (Polymer Laboratories) and UV-detection (CoA and malonyl-CoA are detected at 254 nm). The percent inhibition of FabD was calculated by integrating the area of the CoA peak in the chromatogram. […]

A further assay relates to caspase. The assay is described as follows: inhibition of caspase.
For another assay, the system named is p53. Kind of assay: inhibition of p53.
Assay [1] deals with 32D cl 3 mouse hematopoietic progenitor cells. Kind of assay: radioprotection, survival curves of irradiated 32D cl 3 cells. Type of assay: cell-based. As to conditions: for Do (Gy): compound at 10 μM, ionizing radiation survival curve; for radioprotective effect on cells: 10 μM, compound added before or after radiation. The method, then: To measure the level of radioprotection for compounds in Table 3, a DMSO solution is made for each compound and added to 32D cl 3 cells, a mouse hematopoietic progenitor cell line at a final concentration of 10 μM. The terms “radioprotection” and “radioprotective” refer to the protective effect on normal cells exerted by the captioned compounds when such cells are exposed to ionizing radiation.
FIGS. 2-4 show the survival curves for 32D cl 3 cells in the presence of different compounds of the invention. A strong radioprotective effect is seen in cultures that include the captioned compounds. FIGS. 2 and 3 show cell survival curves when the captioned compounds were added to cell cultures before exposure to radiation. The survival curves in FIG. 4, however, show the radioprotective effect of the inventive compounds when delivered to cell cultures after exposure to ionizing radiation. […] Moreover, the extent of radioprotection in a culture that is pretreated with an inventive compound is similar to that observed in a culture in which such compound is added after exposure to radiation.
The extent of radioprotection afforded by the captioned compounds is determined by measuring the fraction of viable cells in a culture containing the captioned radioprotective agent. The fraction of viable cells is determined by back-extrapolating the linear portion of the shoulder width in a survival curve to the Y-axis.

T1 sequence (P0AAI9 whole entry): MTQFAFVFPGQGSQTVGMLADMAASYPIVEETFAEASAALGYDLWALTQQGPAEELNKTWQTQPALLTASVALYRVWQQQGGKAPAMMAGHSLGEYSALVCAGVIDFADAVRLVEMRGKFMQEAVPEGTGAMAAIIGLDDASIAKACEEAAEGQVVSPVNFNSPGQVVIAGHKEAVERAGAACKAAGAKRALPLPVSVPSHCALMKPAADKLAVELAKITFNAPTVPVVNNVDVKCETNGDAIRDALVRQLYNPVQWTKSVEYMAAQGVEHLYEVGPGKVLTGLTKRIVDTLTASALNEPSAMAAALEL

Take `CC(C)=CCC[C@H](C)CC(NC1CCSC1=O)C(=O)NC(c1ccccc1)c1ccccc1` (stereo partly drawn) [Compound 13a, (S)-4,8-Dimethyl-2-(2-oxo-tetrahydro-thiophen-3-ylamino)-non-7-enoic acid benzhydryl-amide]: the “ability to inhibit FabD” value on E. coli FabD is given as “potent inhibitors”. Regarding `COC(=O)CNC(=O)C(NC1CCSC1=O)C1CC1` (racemic) [BEB 69], in the assay with caspase, the inhibition of caspase entry was “inhibit caspase”. In addition, in the assay with p53, the “inhibition of p53” value is listed as “p53 inhibitors”. For the compound `Clc1cccc(Cc2ncn(CC3CC3)c2-c2c[nH]c3ccccc23)c1` [BEB 59], in the assay with p53, the “inhibition of p53” value is listed as “inhibitors of p53”. Moreover, the “Do (Gy)” value in assay [1] is 1.1 ± 0.1 Gy.

With `O=C(NCc1ccccc1)[C@@H]1CSC(=O)[C@H](Cc2ccccc2)N1` (single isomer, unassigned) [BEB 75-1], in assay [1], the “radioprotective effect on cells” value is given as “potent radioprotective effect” and the “Do (Gy)” value was determined as 0.9 ± 0.1 Gy. On to `Clc1ccc(-c2ncn(CC3CC3)c2-c2c[nH]c3ccccc23)cc1` [BEB 55], for which the “inhibition of p53” value in the assay on p53 is on record as “inhibitors of p53”. In addition, in assay [1], the “Do (Gy)” value is 1.1 ± 0.1 Gy.

In the case of `Cc1cn(CC(NC2CCSC2=O)C(=O)NC(C)(C)C)c(=O)[nH]c1=O` (racemic) [SK7], in the assay on caspase, the inhibition of caspase result is on record as “inhibit caspase”. For the same compound, in assay [1], the “radioprotective effect on cells” value is recorded as “potent radioprotective effect” and the “Do (Gy)” value is 1.1 ± 0.1 Gy. Consider `Cc1cc(C)c(NC(=O)C(NC2CCSC2=O)C(C)C)c(C)c1` (stereo not shown) [Compound 15a, 3-Methyl-2-(2-oxo-tetrahydro-thiophen-3-ylamino)-N-(2,4,6-trimethyl-phenyl)-butyramide], for which, at E. coli FabD, the “ability to inhibit FabD” value is listed as “potent inhibitors”.
